Data from patent publication US6423325B1, “Skin care composition” (Conopco, Inc., priority 1999, dated 2002).
“And” between values parts separate entries of the source, which are not always exact repeats. Equal entries are not always repeated.

Tested on: procollagen-I synthesis in human dermal fibroblasts
Assay: Dot blot assay for procollagen-I protein in dermal fibroblast conditioned medium
Assay type: cell-based
Settings: 24 hours, primary human foreskin fibroblasts, relative to vehicle treated control value of 100
Experimental: Primary human foreskin fibroblasts at passage 2 (P2) were seeded into 12-well plates at 10000 cells/cm^2 and maintained for 24 hours in an atmosphere of 5% carbon dioxide and 4% oxygen in Dulbeccos Modified Eagles Medium (DMEM) supplemented with 10% foetal calf serum. After this time the cells were washed with serum free DMEM and then incubated in fresh serum free DMEM for a further 60 hours. The fibroblast monolayers were then washed again with serum free DMEM. Test reagents and vehicle controls were added to the cells in triplicate in a final volume of 0.4 ml/well fresh serum free DMEM and incubated for a further 24 hours.
This fibroblast conditioned medium was either analysed immediately or snap frozen in liquid nitrogen and stored at −70° C. for future analysis. The cells were then counted and data from the dot-blot analysis subsequently standardised to cell number.
Samples of conditioned medium from dermal fibroblasts treated with vehicle (as a control) or test reagents were supplemented with 20 mM dithiothreitol (1:10 dilution of 200 mM stock solution) and 0.1% sodium dodecylsulphate (1:100 dilution of 10% stock solution), mixed well and then incubated at 75° C. for 2 minutes.
A standard for the assay was generated by serial dilution of neat fibroblast conditioned medium from fibroblasts seeded at 10000 cells/cm^2 in a 175 cm^2 flask and maintained in serum free DMEM as described above. Assay samples were subsequently applied in triplicate to a prewetted sheet of Immobilon-P transfer membrane using the 96-well Bio-Dot Apparatus from Bio-Rad as described in the manufacturers guidelines. Approximately 200 μl of medium was applied per well. The medium was allowed to filter through the membrane under gravity (30 minutes) after which the membrane was washed twice with PBS (200 μl). These PBS washes were allowed to filter through the membrane under gravity (2×15 minutes).
The Bio-Dot apparatus was then attached to a vacuum manifold and a third and final PBS wash carried out under suction. The apparatus was disassembled, the membrane removed and quickly cut as required before being placed in blocking buffer overnight at 4° C. Membranes prepared for procollagen-I analysis were blocked with 5% (w/v) non-fat dried milk powder/0.05% Tween 20 in PBS. The following day, the membranes were probed with 1:10000 dilution of primary antibodies to human procollagen-I (MAB1912; rat monoclonal; Chemicon Int. Inc., Temecula, Calif.) for 2 hours at room temperature. The membranes were subsequently washed with TBS/0.05% Tween 20 (3×5 minutes) and then incubated with 1:1000 dilution of ^125I-conjugated anti-rat fragments (Amersham) as required for 1 hour at room temperature. Following this the Immobilon strips were again washed with TBS/Tween 20 (3×5 minutes) before being allowed to dry in air at room temperature.
The dried membranes were wrapped in cellophane and exposed to a Molecular Dynamics storage phosphor screen for 16-18 hours. […] Dot intensity was assessed by computer-assisted image analysis using the quantification tools in ImageQuant™, standardised to cell number and the effects of various test reagents procollagen-I synthesis were determined relative to a vehicle treated control value of 100 arbitrary units.
In order to normalise the results the effects of the test substances were determined relative to a vehicle treated control value of 100 arbitrary units. […]

Row | Structure (SMILES) | Procollagen-I (10 μM) | Procollagen-I (1 μM)
1 | CC/C=C\C/C=C\C/C=C\C/C=C\C/C=C\C/C=C\CCC(=O)O [DHA, Docosahexaenoic acid] | 105.1 arbitrary units | –
2 | CCCCCCCCCCC/C=C\CCCCC(=O)O [PA, Petroselinic acid] | – | 87.6 arbitrary units
3 | CCCCC/C=C\C/C=C\CCCCCCCC(=O)O [linoleic acid] | 111.8 arbitrary units and 110.3 arbitrary units | 99.3 arbitrary units
4 | CCCCCCCC/C=C\CCCCCCCC(=O)O [oleic acid, reference compound] | 102.6 arbitrary units | –
